{
  "source": "paper PMC5572576",
  "about": "(The Lancet. Oncology, 2017)",
  "key": {"patients with R/R AML": {"test_system": "patients with R/R AML", "test": "Phase 1/2 study, antileukemic response", "format": "in vivo, human", "conditions": "for Median overall survival / Median response duration: (95% CI)"}, "FLT3": {"test_system": "FLT3", "conditions": "cell-based assays; cited from earlier work"}, "c-Kit": {"test_system": "c-Kit", "conditions": "cell-based assays; cited from earlier work"}, "[1]": {"test_system": "FLT3-ITD receptors in Molm14 cells", "test": "Ex vivo FLT3 plasma inhibitory activity", "format": "cell-based", "conditions": "by Day 8, majority of patients receiving ≥80 mg"}, "AXL": {"biological_target": "AXL", "conditions": "panel of 78 kinases; cited from earlier work"}, "[2]": {"biological_target": "leukocyte receptor tyrosine kinase (LTK)", "conditions": "panel of 78 kinases; cited from earlier work"}, "[3]": {"test": "Plasma pharmacokinetics after oral once-daily dosing", "format": "in vivo, human", "conditions": "oral daily dosing 20–450 mg"}, "[4]": {"conditions": "FLT3mut+ receiving ≥80mg/d (n=169)"}},
  "note": "Where “and” joins values, the source holds several entries; their conditions need not be identical. Equal values may be shown once.",
  "data": [
    {"molecule": "CCc1nc(C(N)=O)c(Nc2ccc(N3CCC(N4CCN(C)CC4)CC3)c(OC)c2)nc1NC1CCOCC1", "note": "[gilteritinib]", "values": [
      {"measurement": "CRc", "setting": "patients with R/R AML; FAS (n=249)", "value": "75 (30% [25, 36]) n (% [95% CI])"},
      {"measurement": "ORR", "setting": "patients with R/R AML; FAS (n=249)", "value": "100 (40% [34, 47]) n (% [95% CI])"},
      {"measurement": "Median overall survival", "setting": "patients with R/R AML; FAS (n=249)", "value": "25 (20, 30) weeks"},
      {"measurement": "Median response duration", "setting": "patients with R/R AML; FAS (n=249)", "value": "[…]"},
      {"measurement": "CRc", "setting": "patients with R/R AML; FLT3WT (n=58)", "value": "5 (9% [3, 19]) n (% [95% CI])"},
      {"measurement": "Median overall survival", "setting": "patients with R/R AML; FLT3WT (n=58)", "value": "17 (11, 21) weeks"},
      {"measurement": "Median response duration", "setting": "patients with R/R AML; FLT3WT (n=58)", "value": "[…]"},
      {"measurement": "CR", "setting": "patients with R/R AML; FLT3mut+ all patients (n=191)", "value": "18 (9% [6, 15]) n (% [95% CI])"},
      {"measurement": "CRc", "setting": "patients with R/R AML; FLT3mut+ all patients (n=191)", "value": "70 (37% [30, 44]) n (% [95% CI])"},
      {"measurement": "CRi", "setting": "patients with R/R AML; FLT3mut+ all patients (n=191)", "value": "42 (22% [16, 29]) n (% [95% CI])"},
      {"measurement": "CRp", "setting": "patients with R/R AML; FLT3mut+ all patients (n=191)", "value": "10 (5% [3, 9]) n (% [95% CI])"},
      {"measurement": "ORR", "setting": "patients with R/R AML; FLT3mut+ all patients (n=191)", "value": "93 (49% [41, 56]) n (% [95% CI])"},
      {"measurement": "PR", "setting": "patients with R/R AML; FLT3mut+ all patients (n=191)", "value": "23 (12% [8, 18]) n (% [95% CI])"},
      {"measurement": "Median overall survival", "setting": "patients with R/R AML; FLT3mut+ all patients (n=191)", "value": "30 (23, 33) weeks"},
      {"measurement": "Median response duration", "setting": "patients with R/R AML; FLT3mut+ all patients (n=191)", "value": "[…]"},
      {"measurement": "Transplant rate", "setting": "patients with R/R AML; FLT3mut+ receiving ≥80 mg/d", "value": 19, "unit": "%"},
      {"measurement": "CR", "setting": "patients with R/R AML; [4]", "value": "18 (11% [6, 16]) n (% [95% CI])"},
      {"measurement": "CRi", "setting": "patients with R/R AML; [4]", "value": "41 (24% [18, 31]) n (% [95% CI])"},
      {"measurement": "CRp", "setting": "patients with R/R AML; [4]", "value": "10 (6% [3, 11]) n (% [95% CI])"},
      {"measurement": "ORR", "setting": "patients with R/R AML; [4]", "value": "88 (52% [44, 60]) n (% [95% CI])"},
      {"measurement": "PR", "setting": "patients with R/R AML; [4]", "value": "19 (11% [7, 17]) n (% [95% CI])"},
      {"measurement": "Median overall survival", "setting": "patients with R/R AML; [4]", "value": "31 weeks and 31 (24, 59) weeks"},
      {"measurement": "Median response duration", "setting": "patients with R/R AML; [4]", "value": "[…]"},
      {"measurement": "Median OS", "setting": "patients with R/R AML; FLT3mut+ responders who underwent HSCT (n=32)", "value": 47, "unit": "weeks"},
      {"measurement": "Transplant rate", "setting": "patients with R/R AML; FLT3mut+ who achieved PR or better", "value": 34, "unit": "%"},
      {"measurement": "Transplant rate", "setting": "patients with R/R AML; FLT3mut+ with CRc and no prior transplant (n=47)", "value": 47, "unit": "%"},
      {"measurement": "Transplant rate", "setting": "patients with R/R AML; entire FLT3mut+ population", "value": 19, "unit": "%"},
      {"measurement": "IC50", "setting": "FLT3", "value": "[…]"},
      {"measurement": "IC50", "setting": "c-Kit", "value": 102, "unit": "nM"},
      {"measurement": "FLT3 phosphorylation inhibition", "setting": "[1]", "value": "≥ 90", "unit": "%"},
      {"measurement": "kinase inhibition", "setting": "AXL", "value": "strong inhibitor"},
      {"measurement": "kinase inhibition", "setting": "[2]", "value": "strong inhibitor"},
      {"measurement": "Steady state plasma levels reached", "setting": "[3]", "value": 15, "unit": "treatment Day"}
    ]}
  ]
}
